Results taken from patent US9617267B2, “Compounds and methods for kinase modulation, and indications therefor” (Plexxikon Inc., priority 2009, dated 2017).
pIC50: −log10 of the molar value. Where two headings read alike, the source gives them in different places.

What was measured:
[1] = target: B-Raf (Homo sapiens (Human), UniProt P15056); assay: B-Raf kinase activity biochemical assay (AlphaScreen, biotin-MEK1 phosphorylation); conditions: B-Raf
Method in brief: (§1)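 Compounds from a 0.1 mM DMSO stock were tested at 8 serially diluted points. Kinase reactions with 100 μM ATP (final) ran 45 min at room temperature, then were stopped with EDTA buffer containing anti-phospho-MEK1/2 antibody plus streptavidin donor and protein A acceptor beads.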

[2] = system: B-Raf; assay: as above; conditions: for Biochemical activity ratio B/V600E: ratio of IC50 B-Raf / B-Raf V600E; for Biochemical activity ratio B/C: ratio of IC50 B-Raf / c-Raf-1
Method in brief: as §1

[3] = target: B-Raf V600E (Homo sapiens (Human), UniProt P15056, V600E); assay: B-Raf V600E kinase activity biochemical assay (AlphaScreen, biotin-MEK1 phosphorylation); conditions: for IC50: B-Raf V600E; for Biochemical activity ratio V600E/C: ratio of IC50 B-Raf V600E / c-Raf-1
Chain of B-Raf V600E (P15056 whole entry V600E): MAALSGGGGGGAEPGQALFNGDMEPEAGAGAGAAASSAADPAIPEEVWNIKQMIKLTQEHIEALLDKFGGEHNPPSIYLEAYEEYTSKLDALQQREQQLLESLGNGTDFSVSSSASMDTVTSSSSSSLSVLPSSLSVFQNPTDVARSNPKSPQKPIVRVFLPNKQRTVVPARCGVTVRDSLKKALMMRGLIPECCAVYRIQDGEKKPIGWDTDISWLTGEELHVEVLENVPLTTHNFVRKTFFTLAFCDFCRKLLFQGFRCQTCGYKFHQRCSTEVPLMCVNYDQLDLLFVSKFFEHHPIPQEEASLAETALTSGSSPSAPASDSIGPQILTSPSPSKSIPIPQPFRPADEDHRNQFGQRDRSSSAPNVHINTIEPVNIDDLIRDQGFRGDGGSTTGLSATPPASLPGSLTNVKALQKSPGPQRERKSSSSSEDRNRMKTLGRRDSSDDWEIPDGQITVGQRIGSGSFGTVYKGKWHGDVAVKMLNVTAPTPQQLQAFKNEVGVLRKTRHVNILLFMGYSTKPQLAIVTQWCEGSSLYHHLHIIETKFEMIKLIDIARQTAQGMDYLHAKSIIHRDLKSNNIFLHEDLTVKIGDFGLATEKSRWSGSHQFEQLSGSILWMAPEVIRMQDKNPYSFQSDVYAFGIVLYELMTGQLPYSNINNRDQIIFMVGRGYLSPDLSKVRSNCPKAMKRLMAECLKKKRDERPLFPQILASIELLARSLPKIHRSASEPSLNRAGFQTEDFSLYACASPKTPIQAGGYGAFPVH
Method in brief: as §1

[4] = target: c-Raf-1 (Homo sapiens, UniProt P04049); assay: c-Raf-1 kinase activity biochemical assay (AlphaScreen, biotin-MEK1 phosphorylation)
Chain of c-Raf-1 (P04049 whole entry, looked up): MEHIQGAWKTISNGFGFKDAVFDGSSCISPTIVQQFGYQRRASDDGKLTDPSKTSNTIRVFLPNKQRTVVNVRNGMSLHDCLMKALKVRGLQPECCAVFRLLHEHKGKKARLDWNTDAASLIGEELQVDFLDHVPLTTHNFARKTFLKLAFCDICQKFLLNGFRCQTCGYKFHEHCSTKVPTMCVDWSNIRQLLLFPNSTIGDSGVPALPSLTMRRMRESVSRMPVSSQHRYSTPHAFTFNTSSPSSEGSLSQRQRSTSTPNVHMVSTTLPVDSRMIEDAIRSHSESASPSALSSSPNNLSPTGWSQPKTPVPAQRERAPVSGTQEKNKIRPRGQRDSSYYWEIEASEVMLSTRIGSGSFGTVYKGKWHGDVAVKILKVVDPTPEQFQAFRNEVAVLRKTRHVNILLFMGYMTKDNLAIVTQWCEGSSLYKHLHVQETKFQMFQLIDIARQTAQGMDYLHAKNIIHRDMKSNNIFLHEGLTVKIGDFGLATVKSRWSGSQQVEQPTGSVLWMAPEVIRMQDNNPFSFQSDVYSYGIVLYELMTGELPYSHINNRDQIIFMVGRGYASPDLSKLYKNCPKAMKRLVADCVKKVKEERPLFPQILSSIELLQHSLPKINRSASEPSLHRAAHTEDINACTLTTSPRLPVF
Method in brief: as §1

[5] = Relative solubility by turbidity threshold concentration in aqueous buffers (pH 1.5, 4.5, 6.8, 7.4); format: physicochemical; conditions: for turbidity threshold (L, M, H) 1.4: pH 1.4 [sic] (method: SGF pH 1.5); for turbidity threshold (L, M, H) 4.5: pH 4.5 (SIF); for turbidity threshold (L, M, H) 6.8: pH 6.8 (SIF); for turbidity threshold (L, M, H) 7.4: pH 7.4 (HEPES)
Method in brief: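 Solubility class (high >250 μM, moderate 31.3–250 μM, low <31.3 μM) comes from the concentration where absorbance reaches a 0.01 threshold, averaged across 490/535/650 nm. Samples were compound dilutions from DMSO stock, 1 μL into 99 μL buffer at pH 1.5, 4.5, 6.8 or 7.4.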

[6] = target: CYP1A2 (Homo sapiens (Human), UniProt P05177); assay: CYP enzyme inhibition, fluorescent substrate (CEC)
Chain of CYP1A2 (P05177 whole entry): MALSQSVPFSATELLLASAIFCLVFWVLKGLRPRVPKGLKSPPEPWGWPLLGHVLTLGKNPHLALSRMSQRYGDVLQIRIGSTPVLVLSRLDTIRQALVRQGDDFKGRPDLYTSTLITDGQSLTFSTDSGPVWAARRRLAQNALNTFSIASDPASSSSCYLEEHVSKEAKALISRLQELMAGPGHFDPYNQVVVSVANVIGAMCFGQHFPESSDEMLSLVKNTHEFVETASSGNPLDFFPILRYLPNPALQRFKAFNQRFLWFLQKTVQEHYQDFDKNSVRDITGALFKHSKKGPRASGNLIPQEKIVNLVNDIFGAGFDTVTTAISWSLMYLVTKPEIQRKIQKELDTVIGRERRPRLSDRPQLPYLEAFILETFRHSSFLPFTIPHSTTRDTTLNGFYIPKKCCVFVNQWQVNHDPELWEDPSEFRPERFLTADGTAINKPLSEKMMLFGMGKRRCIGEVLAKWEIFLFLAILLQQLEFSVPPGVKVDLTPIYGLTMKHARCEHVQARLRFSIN
Method in brief: (§2)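 IC50 derived from loss of fluorescent metabolite across a 10-point 1:1 dilution series. CYP2D6: 1.5 pmol enzyme, 1.5 μM AMMC, 30 min at 37 °C, 409/530 nm; CYP1A2: 0.5 pmol, 5 μM CEC, 15 min, 409/460 nm. Compounds pre-incubated 10 min in NADPH-regenerating mix.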

[7] = target: CYP2C19 (Homo sapiens (Human), UniProt P33261); assay: CYP enzyme inhibition, fluorescent substrate (CEC)
Chain of CYP2C19 (P33261 whole entry): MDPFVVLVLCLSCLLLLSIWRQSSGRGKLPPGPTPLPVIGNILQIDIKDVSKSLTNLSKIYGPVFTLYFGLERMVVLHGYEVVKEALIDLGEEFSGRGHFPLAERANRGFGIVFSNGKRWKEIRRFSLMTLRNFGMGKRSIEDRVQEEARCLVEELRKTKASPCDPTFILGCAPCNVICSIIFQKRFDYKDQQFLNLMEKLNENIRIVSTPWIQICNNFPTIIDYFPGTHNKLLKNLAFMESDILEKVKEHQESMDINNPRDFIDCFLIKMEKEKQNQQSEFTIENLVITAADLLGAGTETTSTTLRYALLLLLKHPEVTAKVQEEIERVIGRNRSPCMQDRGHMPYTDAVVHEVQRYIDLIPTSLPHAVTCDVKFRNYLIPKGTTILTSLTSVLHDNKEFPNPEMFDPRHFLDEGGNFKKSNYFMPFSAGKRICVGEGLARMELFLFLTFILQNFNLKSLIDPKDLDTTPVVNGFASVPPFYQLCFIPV
Method in brief: (§3)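 10-pt 1:1 serial dilution in co-factor mix (DMSO stock 100 mM); 10 min preincubation, 37 °C; reaction at 37 °C. Readout: fluorescent metabolite of probe substrate. IC50 from signal vs [compound].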

[8] = target: CYP2C9 (Homo sapiens (Human), UniProt P11712); assay: CYP enzyme inhibition, fluorescent substrate (MFC); conditions: read-out: Cyp IC50 2C9; CYP2C9, substrate MFC
Chain of CYP2C9 (P11712 whole entry): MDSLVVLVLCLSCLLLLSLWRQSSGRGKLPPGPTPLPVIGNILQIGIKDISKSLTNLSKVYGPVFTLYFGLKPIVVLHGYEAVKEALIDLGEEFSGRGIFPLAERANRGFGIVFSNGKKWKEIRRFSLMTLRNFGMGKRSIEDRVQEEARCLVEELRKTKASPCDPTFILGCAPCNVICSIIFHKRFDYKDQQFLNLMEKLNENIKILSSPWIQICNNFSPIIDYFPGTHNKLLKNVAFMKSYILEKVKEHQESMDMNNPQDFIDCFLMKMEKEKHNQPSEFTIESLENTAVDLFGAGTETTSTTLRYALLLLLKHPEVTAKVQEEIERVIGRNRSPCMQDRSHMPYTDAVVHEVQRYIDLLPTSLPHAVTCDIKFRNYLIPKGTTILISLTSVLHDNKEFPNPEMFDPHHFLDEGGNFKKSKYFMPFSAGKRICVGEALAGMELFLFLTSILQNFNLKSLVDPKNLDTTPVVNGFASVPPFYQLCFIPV
Method in brief: as §3

[9] = target: CYP2D6 (Homo sapiens (Human), UniProt P10635); assay: CYP enzyme inhibition, fluorescent substrate (AMMC); format: in vitro ADME; conditions: read-out: Cyp IC50 2D6
Chain of CYP2D6 (P10635 whole entry): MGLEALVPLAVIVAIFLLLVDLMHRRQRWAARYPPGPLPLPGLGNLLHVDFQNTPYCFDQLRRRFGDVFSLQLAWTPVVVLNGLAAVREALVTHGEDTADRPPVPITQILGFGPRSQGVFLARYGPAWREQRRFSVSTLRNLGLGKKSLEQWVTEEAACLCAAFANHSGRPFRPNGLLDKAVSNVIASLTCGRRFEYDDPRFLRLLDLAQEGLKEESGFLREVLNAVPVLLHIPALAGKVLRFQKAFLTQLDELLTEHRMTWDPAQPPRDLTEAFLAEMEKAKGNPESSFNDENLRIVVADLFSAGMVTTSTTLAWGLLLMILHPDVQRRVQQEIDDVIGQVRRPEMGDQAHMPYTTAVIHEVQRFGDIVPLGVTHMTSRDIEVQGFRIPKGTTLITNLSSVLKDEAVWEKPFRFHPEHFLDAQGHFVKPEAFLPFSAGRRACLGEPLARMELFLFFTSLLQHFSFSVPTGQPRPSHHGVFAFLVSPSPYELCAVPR
Method in brief: as §2

[10] = target: CYP3A4(BFC) (Homo sapiens (Human), UniProt P08684); assay: CYP enzyme inhibition, fluorescent substrate BFC
Chain of CYP3A4(BFC) (P08684 whole entry): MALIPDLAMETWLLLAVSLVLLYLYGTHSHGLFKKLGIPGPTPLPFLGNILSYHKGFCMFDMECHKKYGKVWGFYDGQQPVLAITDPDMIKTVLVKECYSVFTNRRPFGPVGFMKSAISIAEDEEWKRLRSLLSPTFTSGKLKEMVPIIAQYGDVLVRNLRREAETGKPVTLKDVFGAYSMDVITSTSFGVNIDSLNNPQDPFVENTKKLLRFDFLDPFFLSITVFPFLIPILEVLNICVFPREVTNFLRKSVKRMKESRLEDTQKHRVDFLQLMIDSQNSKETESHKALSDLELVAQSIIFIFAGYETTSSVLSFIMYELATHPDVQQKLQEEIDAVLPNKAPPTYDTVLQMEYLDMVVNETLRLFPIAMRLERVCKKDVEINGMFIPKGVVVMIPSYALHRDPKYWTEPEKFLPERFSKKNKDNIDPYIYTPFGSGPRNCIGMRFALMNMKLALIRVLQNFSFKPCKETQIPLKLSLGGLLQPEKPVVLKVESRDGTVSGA
Method in brief: as §3

[11] = target: CYP3A4(BQ) (Homo sapiens (Human), UniProt P08684); assay: CYP enzyme inhibition, fluorescent substrate BQ
Chain of CYP3A4(BQ) (P08684 whole entry): as above
Method in brief: as §3

[12] = read-out: Cyp IC50 2C19, CYP2C19, substrate CEC
[13] = read-out: Cyp IC50 3A4(BQ), CYP3A4, substrate BQ

Chain of B-Raf (Homo sapiens (Human), UniProt P15056) (P15056 whole entry): as the sequence (P15056 whole entry V600E) above, with E600V counted along it

Compound | IC50 [1] [µM] | Biochemical activity ratio B/V600E [2] | Biochemical activity ratio B/C [2] | IC50 [3] [µM] | Biochemical activity ratio V600E/C [3] | IC50 [4] [µM] | turbidity threshold (L, M, H) 1.4 [5] | turbidity threshold (L, M, H) 4.5 [5] | turbidity threshold (L, M, H) 6.8 [5] | turbidity threshold (L, M, H) 7.4 [5] | pIC50 ([6]; read-out: Cyp IC50 1A2, CYP1A2, substrate CEC) | pIC50 [7, 12] | pIC50 [8] | pIC50 [9] | pIC50 ([10]; read-out: Cyp IC50 3A4(BFC), CYP3A4, substrate BFC) | pIC50 [11, 13] | pIC50 ([6]; human, 15 min) | pIC50 [7] | pIC50 [10] | pIC50 [11]
O=C(c1c(F)ccc(NS(=O)(=O)c2ccc(C(F)(F)F)cc2)c1F)c1c[nH]c2ncnc(NC3COC3)c12 [P-1050, N-{2,4-Difluoro-3-[4-(oxetan-3-ylamino)-7H-pyrrolo[2,3-d]pyrimidine-5-carbonyl]-phenyl}-4-trifluoromethyl-benzenesulfonamide] | < 0.1 | 0.1-10 | >10 | < 0.1 | >10 | < 0.1 | H (high solubility if the threshold concentration is >250 μm) | M (moderate solubility if the threshold concentration is 31.3 μM to 250 μM) | M (moderate solubility if the threshold concentration is 31.3 μM to 250 μM) | M (moderate solubility if the threshold concentration is 31.3 μM to 250 μM) | < 5.00 | < 5.00 | < 5.00 | < 5.00 | < 5.00 | < 5.00 |  |  |  | 
CCCc1ccc(S(=O)(=O)Nc2ccc(F)c(C(=O)c3c[nH]c4ncnc(OC)c34)c2F)cc1 [P-1005, N-[2,4-Difluoro-3-(4-methoxy-7H-pyrrolo[2,3-d]pyrimidine-5-carbonyl)-phenyl]-4-propyl-benzenesulfonamide] | > 0.1 | 0.1-10 | 0.1-10 | > 0.1 | >10 | < 0.1 | H (high solubility if the threshold concentration is >250 μm) | L (low solubility if the threshold concentration is <31.3 μM) | L (low solubility if the threshold concentration is <31.3 μM) | L (low solubility if the threshold concentration is <31.3 μM) |  |  | < 5.00 | < 5.00 |  | < 5.00 | < 5.00 | 5.00 to 5.30 | 5.00 to 5.30 | 
CCCc1ccc(S(=O)(=O)Nc2ccc(F)c(C(=O)c3c[nH]c4ncnc(C)c34)c2F)cc1 [P-1007, N-[2,4-Difluoro-3-(4-methyl-7H-pyrrolo[2,3-d]pyrimidine-5-carbonyl)-phenyl]-4-propyl-benzenesulfonamide] | < 0.1 | 0.1-10 | 0.1-10 | > 0.1 | >10 | < 0.1 | L (low solubility if the threshold concentration is <31.3 μM) | L (low solubility if the threshold concentration is <31.3 μM) | L (low solubility if the threshold concentration is <31.3 μM) | L (low solubility if the threshold concentration is <31.3 μM) |  | < 5.00 | < 5.00 | < 5.00 |  |  | < 5.00 |  | 5.00 to 5.30 | 5.00 to 5.30
